From publication PMC5298241, “Mitochondria-penetrating peptides conjugated to desferrioxamine as chelators for mitochondrial labile iron” (PLoS ONE, 2017) come the findings set out here.

Experiment [1] deals with A2780 cells.
Protocol: (§1) A2780 (human ovarian cancer) cell line was obtained from Fox Chase Cancer Center (USA) and cultured in RPMI-1640 medium supplemented with 10% FBS and 1% penicillin/streptomycin. Cells were incubated at 37°C in a humidified incubator with a 5% CO2.
(§2) A2780 cells were plated in 96-well flat-bottom tissue culture plates (Starstedt) at 25,000 cells per well. The culture medium was removed, and cells were washed. Cellular viability was analyzed after an overnight incubation at 37°C with 5% CO2 using the CCK-8 viability dye (Dojindo, Rockville, Maryland) at an absorbance of 450 nm. From the resulting dose-response curves, 50% growth inhibitory concentration (IC50) values were determined by interpolation [22].
The test system of experiment [2] is A2780 cells. Nature of the experiment: cells. Particulars: Homo sapiens, A2780, 24 h.
Protocol: as §1, §2
The nature of experiment [3]: Antioxidant activity (iron-catalysed oxidation of DHR by ascorbate). Format: biochemical. Particulars: 20 μM chelator, 40 μM ascorbic acid, 50 μM DHR in HBS; Fe(NTA) or serum of iron-overloaded patients; 37°C, slopes 15−40 min. The method, then: The standard ferric nitrilotriacetate (Fe(NTA)) complex (1:3 Fe:NTA molar ratio) was prepared by adding FAS to a stock solution of aqueous NTA, and allowed to react for 1 h at 37°C under air so that iron is oxidized to Fe(III) (evidenced by the change of color to deep yellow). Then, 180 μL of a mixture of 40 μM ascorbic acid, 50 μM DHR, and 20 μM chelators (DFO, DFO-Tat, DFO-1A, DFO-SS02 e DFO-SS20) in HBS was placed in a 96-well microplate and treated with 20 μL of either Fe(NTA) at different concentrations or sera from iron overloaded patients. Assays were performed in duplicate. Sera samples were furnished by Dr. Nelson Hamerschlak, Albert Einstein Hospital, São Paulo. Fluorescence was measured in a BMG FluoStar Optima instrument for 60 min at 37°C (λexc/λem = 485/520 nm). The slopes (indicating rate of oxidation, presented in fluorescence units per minute) of the oxidation curves were calculated in the time range 15−40 min and were plotted against iron concentration.

Experiment [4] concerns mitochondria of A2780 cells. Nature of the experiment: Mitochondrial localization (colocalization with MitoTracker Deep Red). In kind it is cell-based, human. Particulars: TAMRA-labeled mtDFO 1–10 μM, 1 h, MitoTracker Deep Red 30 min, epifluorescence microscopy, ImageJ. Here is the method: A2780 cells were seeded in an imaging dish in 2 mL of growth medium at 60% confluence. The growth medium was swapped with premixed medium containing 1–10 μM of TAMRA-mtDFO, and the cells were allowed to incubate with the dye for 1 h. MitoTracker Deep Red was added to the cells at 1.0–4.0 μM concentrations and allowed to incubate for 30 min. At the end of the incubation period, the medium was aspirated, and the cells were washed with 3 × 1 mL PBS and incubated with 2 mL of dye-free DMEM. The imaging experiments were performed using a Zeiss Axiovert 200M inverted epifluorescence microscope equipped with an EM-CCD digital camera (Hamamatsu) and a MS200 XY Piezo Z stage (Applied Scientific Instruments). The light source was an X-Cite 120 metal-halide lamp (EXFO), and the fluorescence images were obtained with an oil-immersion objective at 63× magnification. The microscope was operated by the Volocity software program of Perkin-Elmer. Colocalization of the dyes was quantitated using the program ImageJ using a previously described protocols.

[5] abbreviates: A2780 cells, 24 h (overnight incubation at 37°C, 5% CO2), CCK-8 viability dye, absorbance 450 nm, interpolation of dose-response curves, average ± s.d. of at least three independent experiments.

Where two headings read alike, the source gives them in different places. Numbered stars: 1 amine (or outer) side, 2 acyl side, 3 side chain; on linkers, the order of the positions; unused ones are H or OH. Square brackets hold non-standard residues; d marks the D form. Peptide text beside a SMILES is read from it. * marks the point of attachment. 5TAMRA = CN(C)c1ccc2c(c1)Oc1cc(N(C)C)ccc1C21OC(=O)c2cc(C(=O)*)ccc21; DFO = CC(=O)N(O)CCCCCNC(=O)CCC(=O)N(O)CCCCCNC(=O)CCC(=O)N(O)CCCCCN*; Cha = N[C@@H](CC1CCCCC1)C(=O)O; Suc = O=C(CCC(=O)[*:2])[*:1]

What is called IC50 is the concentration that gives 50% inhibition. Lower therefore signals greater potency. In the experiment on A2780 cells [1] (setting [5]), `CC(=O)N(O)CCCCCNC(=O)CCC(=O)N(O)CCCCCNC(=O)CCC(=O)N(O)CCCCCNC(=O)CCC(=O)N[C@@H](Cc1c(C)cc(O)cc1C)C(=O)N[C@H](CCCNC(=N)N)C(=O)N[C@@H](Cc1ccccc1)C(=O)N[C@@H](CCCCN)C(N)=O` [DFO-SS02] returned an IC50 of 42.9 ± 1.06 µM.
Still for that read-out and setting: as for `CC(=O)N(O)CCCCCNC(=O)CCC(=O)N(O)CCCCCNC(=O)CCC(=O)N(O)CCCCCNC(=O)CCC(=O)N[C@@H](CCCNC(=N)N)C(=O)N[C@@H](CCCCN)C(=O)N[C@@H](CCCCN)C(=O)N[C@@H](CCCNC(=N)N)C(=O)N[C@@H](CCCNC(=N)N)C(=O)N[C@@H](CCC(N)=O)C(=O)N[C@@H](CCCNC(=N)N)C(=O)N[C@@H](CCCNC(=N)N)C(=O)N[C@@H](CCCNC(=N)N)C(=O)O` [DFO-TAT], the figure is 111 ± 1.17 µM.
The compound `CC(=O)N(O)CCCCCNC(=O)CCC(=O)N(O)CCCCCNC(=O)CCC(=O)N(O)CCCCCN` [DFO, Desferrioxamine] had a 50% inhibitory concentration (IC50) with A2780 cells [2] of 1450 ± 130 µM. Moreover, the “Suppression of iron-catalysed oxidation of the DHR probe” value in experiment [3] was “efficiently suppressed”.
For the compound `CC(=O)N(O)CCCCCNC(=O)CCC(=O)N(O)CCCCCNC(=O)CCC(=O)N(O)CCCCCNC(=O)CCC(=O)N[C@@H](Cc1ccccc1)C(=O)N[C@H](CCCNC(=N)N)C(=O)N[C@@H](Cc1ccccc1)C(=O)N[C@@H](CCCCN)C(=O)N[C@@H](CCCCNC(=O)c1ccc2c(c1)C(=O)OC21c2ccc(N(C)C)cc2Oc2cc(N(C)C)ccc21)C(N)=O` [DFO-SS20-TAMRA] ({DFO-Suc}-F[dR]FKK(5TAMRA)-NH2), the IC50 in the experiment on A2780 cells [1] (24 h) turned out to be 7.91 ± 1.19 µM.
Still for that read-out and setting: in the case of `CC(=O)N(O)CCCCCNC(=O)CCC(=O)N(O)CCCCCNC(=O)CCC(=O)N(O)CCCCCNC(=O)CCC(=O)N[C@@H](CC1CCCCC1)C(=O)N[C@H](CCCNC(=N)N)C(=O)N[C@@H](CC1CCCCC1)C(=O)N[C@@H](CCCCN)C(=O)N[C@@H](CC1CCCCC1)C(=O)N[C@H](CCCNC(=N)N)C(=O)N[C@@H](CC1CCCCC1)C(=O)N[C@@H](CCCCN)C(=O)N[C@@H](CCCCNC(=O)c1ccc2c(c1)C(=O)OC21c2ccc(N(C)C)cc2Oc2cc(N(C)C)ccc21)C(N)=O` [DFO-1A-TAMRA] ({DFO-Suc}-[Cha][dR][Cha]K[Cha][dR][Cha]KK(5TAMRA)-NH2) it was 2.97 ± 1.06 µM.
Consider carboxy-tetramethylrhodamine [TAMRA], for which the “Rr = Pearson correlation coefficient (colocalization with MitoTracker)” value in experiment [4] was “does not locate by itself in the mitochondria”.
The compound `CC(=O)N(O)CCCCCNC(=O)CCC(=O)N(O)CCCCCNC(=O)CCC(=O)N(O)CCCCCNC(=O)CCC(=O)N[C@@H](Cc1ccccc1)C(=O)N[C@H](CCCNC(=N)N)C(=O)N[C@@H](Cc1ccccc1)C(=O)N[C@@H](CCCCN)C(N)=O` [DFO-SS20] ({DFO-Suc}-F[dR]FK-NH2) came in with a concentration for half-maximal inhibition (IC50) with A2780 cells [1] (24 h) of 62.4 ± 1.13 µM.
On the same count and under the same terms, as for `CC(=O)N(O)CCCCCNC(=O)CCC(=O)N(O)CCCCCNC(=O)CCC(=O)N(O)CCCCCNC(=O)CCC(=O)N[C@@H](CC1CCCCC1)C(=O)N[C@H](CCCNC(=N)N)C(=O)N[C@@H](CC1CCCCC1)C(=O)N[C@@H](CCCCN)C(=O)N[C@@H](CC1CCCCC1)C(=O)N[C@H](CCCNC(=N)N)C(=O)N[C@@H](CC1CCCCC1)C(=O)N[C@@H](CCCCN)C(N)=O` [DFO-1A] ({DFO-Suc}-[Cha][dR][Cha]K[Cha][dR][Cha]K-NH2), the figure is 108 ± 2.51 µM.
